We go through three compounds from patent publication US20220112538A1, “SPECTROSCOPIC METHODS, REAGENTS AND SYSTEMS TO DETECT, IDENTIFY, AND CHARACTERIZE BACTERIA FOR ANTIMICROBIAL SUSCEPTIBLITY” (priority 2020, published 2022).

Type in all cases: cell-based
The test system of assay [1] is wild type strain of S. aureus. As to the kind of experiment: MIC from Rayleigh scattering growth in Cation Adjusted Mueller Hinton Broth, corrected for pathogen concentration. To be noted: for MIC: Staphylococcus aureus. The protocol: FIG. 21A: Variation of Rayleigh scattering with time for 7 samples containing Cation Adjusted Mueller Hinton Broth (CAMHB), an unknown concentration of a test bacteria (which was identified as S. aureus due to pigment production), and loaded onto 96 well plates at 7 concentrations of the candidate antibiotic Vancomycin, with concentrations starting at 1.25 μg/mL (for Cell 7) and decreasing in steps of 2× for each well down to Cell 1. The data is collected for 8 hours. FIG. 21B: Variation of the fitting parameter a, in the fit equation y=a/[1+exp(−(t−b)/c)], with a non-linear best fit routine is applied to fit this equation to the data depicted on the left. The fitting parameter is plotted against cell#. From this variation, it is estimated that Rayleigh growth becomes negligible at an extrapolated cell # of 4.8, which corresponds to a Vancomycin concentration of 0.19 μg/mL.
As we observe experimentally, the antimicrobial susceptibility metric MIC is a function of pathogen concentration, as depicted in FIG. 19. Thus, estimates for MIC obtained from a test sample that is at a pathogen concentration lower than the concentration of 2×10^8 CFU/mL (or 0.5 McFarland) specified in the CLSI M100 standard will need to be corrected for this variation to maximize concordance between a rapid test MIC and the CLSI standard. Empirically, we find that the slope of the traces depicted in FIG. 19 scales with the absolute magnitude of the estimated MIC, as depicted in FIG. 20. Thus, an algorithm to correct the MIC for pathogen concentration is to use the empirical observed scaling relationship depicted in FIG. 20, along with the pathogen concentration estimated from the methods described in FIG. 18. […] Separately, the time to detection is measured as 161 minutes, and this returns an S. aureus concentration of 7.5×10^6 CFU/mL.
We illustrate this process with one example of a wild type strain of S. aureus tested against Vancomycin in Cation Adjusted Mueller Hinton Broth (CAMHB Himedia labs M1657). With CAMHB, the viability of the bacteria is estimated by plotting the Rayleigh scattering factor versus time, and fitting this to an exponential growth function a/[1+exp(−(t−b)/c)], as illustrated in FIG. 21. The growth factor a is then plotted against antibiotic concentration, and from this profile, the concentration at which a approaches zero is estimated as the nominal MIC at the pathogen concentration. Separately, the pathogen concentration is estimated and the MIC is corrected for the pathogen concentration. […] The CLSI M100 breakpoints for Staphylococcus against Vancomycin are >16 μg/mL for resistant and <2 μg/mL for susceptible. Accordingly, this strain of S. aureus is reported as being susceptible to vancomycin, […]

Assay [2] relates to S. aureus (clinical sample). The assay can be described thus: MIC from time required for S. aureus pigment detection versus antibiotic concentration. The protocol:
FIG. 15: Variation of the time required for pigment detection versus antibiotic concentration for tetracycline plotted against antibiotic concentration. The pathogen concentration is estimated at 8.8×10^6 CFU/mL. For antibiotic concentrations of 2 μg/mL, the time to detection is increased by a factor of >2 compared to the baseline value of about 150 minutes for this pathogen concentration. We set this 2× increase as the criterion for MIC˜other criterion can also be used, but will require a different set of corrections for pathogen concentration. With the MIC at the test pathogen concentration, we apply the correction described above, and find that the rapid test MIC correlates with the CLSI M100 MIC, as depicted in FIG. 23.
The second factor that complicates a rapid test for MIC is the presence of multiple pathogens in a polymicrobial sample. For example, a polymicrobial sample that is dominated by Enterococcus but in which the S. aureus is the pathogen of concern, the MIC estimated by examining the growth of Rayleigh scattering can be erroneous because of an incorrect correction for pathogen concentration, and because the Rayleigh scattering is dominated by Enterococcus growth. This issue can be mitigated by one of two ways: (a) by flagging all polymicrobial samples & (b) by focusing the response on a signal associated with the pathogen of interest. For example, using the methods described in Example 5, we detect the S. aureus specific pigments, and characterize the time required for the detection of these pigments as a function of antibiotic concentration. This is illustrated in FIG. 15 for a clinical sample containing […], and the antibiotic tetracycline. From this variation, the MIC is estimated as the minimum antibiotic concentration required to increase the time to detection metric by 2× compared to the time to detection metric observed for the media without any antibiotic (which was 150 minutes in this example). And so, the MIC in this example is log (concentration)=0.3, or a concentration of 2 μg/mL. The concentration of S. aureus estimated from the detection time of 150 minutes (and the methods described in Example 8) is 8.8×10^6 CFU/mL. […] This clinical sample also contained Enterococcus (which was evident after isolating individual colonies on a blood Agar plate), but the method described here focuses the MIC metric on the response of S. aureus.

The next assay deals with E. coli 25922. As to the kind of experiment: Minimum inhibitory concentration from phenol red 560 nm absorbance peak height. As to conditions: 1000 CFU/mL E. coli; extrapolated from a linear fit to phenol red peak height. From the text:
This example characterizes the response of E. coli 25922 to Gentamicin. Top: The curves illustrate the response of a test solution that includes 1000 CFU/mL E. coli, the Phenol-Red based reagent described in herein, and Gentamicin GM present at concentrations that are depicted in the legend. The Y axis depicts the height of the phenol red peak at 560 nm, normalized to the starting value.
This example characterizes the response of E. coli 25922 to Gentamicin. Top: The curves illustrate the response of a test solution that includes 1000 CFU/mL E. coli, the Phenol-Red based reagent described herein, and Gentamicin GM present at concentrations that are depicted in the legend. The Y axis depicts the height of the phenol red peak at 560 nm, normalized to the starting value. Bottom: The normalized peak height at 300 minutes, plotted as a function of GM concentration.
Antimicrobial susceptibility response was characterized. The metabolic activity of the causative pathogen can be suppressed by an effective antimicrobial. Thus, when a candidate antibiotic, present at a test concentration, is combined with the teachings described herein, then we can deduce the effect of that antibiotic on the microorganism. If we combine a series of antibiotic concentrations, then we can deduce the minimum inhibitory concentration. […]

Values after ≈ are worked out from the molar mass of the structure shown. Like-named read-outs stand apart in the source and are kept apart here. Bounds are passed on as bounds.

As to `CN[C@H](CC(C)C)C(=O)N[C@H]1C(=O)N[C@@H](CC(N)=O)C(=O)N[C@H]2C(=O)N[C@H]3C(=O)N[C@H](C(=O)N[C@H](C(=O)O)c4cc(O)cc(O)c4-c4cc3ccc4O)[C@H](O)c3ccc(c(Cl)c3)Oc3cc2cc(c3O[C@@H]2O[C@H](CO)[C@@H](O)[C@H](O)[C@H]2O[C@H]2C[C@](C)(N)[C@H](O)[C@H](C)O2)Oc2ccc(cc2Cl)[C@H]1O` [Vancomycin], in assay [1] (CAMHB, 8 hours, extrapolated cell # 4.8, S. aureus 7.5×10^6 CFU/mL), the “MIC estimated at the test pathogen concentration (concentration at which Rayleigh growth becomes negligible)” value was 0.19 µg/mL (≈ 0.131 µM). Further, the MIC in assay [1] (8 h, read-out: MIC estimated at the test pathogen concentration (concentration at which Rayleigh growth becomes negligible), CAMHB, 8 hours, extrapolated cell # 4.8, S. aureus 7.5×10^6 CFU/mL) was 0.192 µg/mL (≈ 0.132 µM); in assay [1] (read-out: CLSI M100 MIC at 0.5 McFarland, estimated by correction for pathogen concentration, corrected from 7.5×10^6 CFU/mL to 0.5 McFarland) it was 0.867 µg/mL (≈ 0.598 µM). In assay [1] (breakpoints >16 μg/mL resistant, <2 μg/mL susceptible), the “resistant or susceptible status by comparison with CLSI M100 breakpoints” value is “susceptible”.

In the case of `CN(C)[C@@H]1C(O)=C(C(N)=O)C(=O)[C@@]2(O)C(O)=C3C(=O)c4c(O)cccc4[C@@](C)(O)[C@H]3C[C@@H]12` [tetracycline], in assay [2] (S. aureus 8.8×10^6 CFU/mL), the “MIC (minimum concentration that increases time to detection by 2×) at the test pathogen concentration” value stood at 2 µg/mL (≈ 4.5 µM) and the “MIC as log (concentration)” value is listed as 0.3. Moreover, in assay [2] (Staphylococcus aureus, corrected from 8.8×10^6 CFU/mL, read-out: MIC at 0.5 McFarland, estimated by correction for pathogen concentration), the MIC is 2.51 µg/mL (≈ 5.65 µM). Moreover, the “increase of time to pigment detection compared to baseline (factor)” value in assay [2] (antibiotic 2 μg/mL, baseline about 150 minutes, pathogen 8.8×10^6 CFU/mL) is recorded as greater than 2.

As for Gentamicin, the “GM concentration at which the 560 nm peak height does not decrease from the starting value (minimum inhibitory concentration)” value in the assay with E. coli 25922 was 2.03 µg/mL.
